Test results from ChEMBL document CHEMBL1156409, “Durhamycin A, a potent inhibitor of HIV Tat transactivation” (J Nat Prod, 2002).

Assays:
[1] = Inhibition of HIV Tat transactivation in human 63A9 cells by luciferase based reporter gene assay; assay type: cell-based, Human immunodeficiency virus
[2] = Cytotoxicity against human 63A9 cells at 25 uM by MTS assay; assay type: cell-based; conditions: 63a9, 25 µM
[3] = tested on: Human immunodeficiency virus; test: Antiviral activity against HIV H9/3B in HeLa P4/P5 cells after 48 hrs by vertical assay; assay type: functional, organism-based; conditions: Human immunodeficiency virus 1, H9/3B
[4] = Cytotoxicity against human HeLa P4/P5 cells up to 5 uM; assay type: cell-based
[5] = Human immunodeficiency virus 1, 63A9, read-out: IC50

IC50 ([1]; 63a9)	IC50 [1, 5] [µM]	IC50 [3] [µM]	SMILES	Activity [2]	Activity [4]
Not Active			CCC(C)c1c(O)cc2cc3c(c(O)c2c1O)C(=O)C(O)C(C(OC)C(=O)C(O)C(C)O)C3 (stereo unspecified)		
	0.0048	0.0116	CCC(C)c1c(O[C@H]2C[C@@H](O[C@H]3C[C@@H](O)[C@H](O)[C@@H](C)O3)[C@H](O)[C@@H](C)O2)cc2cc3c(c(O)c2c1O)C(=O)C(O[C@H]1C[C@@H](O[C@H]2C[C@@H](O[C@H]4C[C@@H](O[C@H]5C[C@@H](O)[C@H](O)[C@@H](C)O5)[C@H](O)[C@@H](C)O4)[C@@H](OC(C)=O)[C@@H](C)O2)[C@H](O)[C@@H](C)O1)C(C(OC)C(=O)C(O)C(C)O)C3 (stereo partly specified) [DURHAMYCIN A]	Non-toxic	Non-toxic
	0.048		CCC(C)c1c(O[C@H]2C[C@@H](O[C@H]3C[C@@H](O)[C@H](O)[C@@H](C)O3)[C@H](O)[C@@H](C)O2)cc2cc3c(c(O)c2c1O)C(=O)C(O[C@H]1C[C@@H](O[C@H]2C[C@@H](O[C@H]4C[C@@H](O)[C@H](O)[C@@H](C)O4)[C@@H](OC(C)=O)[C@@H](C)O2)[C@H](O)[C@@H](C)O1)C(C(OC)C(=O)C(O)C(C)O)C3 (stereo partly specified) [DURHAMYCIN B]		
